In US20130281467A1, “NOVEL MICROBICIDES” (SYNGENTA PARTICIPATIONS AG, priority 2010, published 2013):

Tests used:
Gaeumannomyces graminis = assay: Fungicidal activity against Gaeumannomyces graminis / liquid culture (take-all of cereals); type: cell-based; settings: 4-5 days after application, read-out: disease control (inhibition of growth, photometrically)
Method: (§1) Fungicidal Activity Against Gaeumannomyces graminis/Liquid Culture (Take-all of Cereals) Mycelial fragments of the fungus from cryogenic storage were directly mixed into nutrient broth (PDB potato dextrose broth). After placing a (DMSO) solution of test compound into a microtiter plate (96-well format), the nutrient broth containing the fungal spores iss added. The test plates were incubated at 24° C. and the inhibition of growth was determined photometrically 4-5 days after application.

[1] = test system: Mycosphaerella arachidis (Cercospora arachidicola); assay: Fungicidal activity against Mycosphaerella arachidis (Cercospora arachidicola) / liquid culture (early leaf spot); type: cell-based; settings: 4-5 days after application, read-out: disease control (inhibition of growth, photometrically)
Method: as §1, with “Mycosphaerella arachidis (Cercospora arachidicola)/Liquid” for “Gaeumannomyces graminis/Liquid”, “(Early Leaf Spot) Conidia” for “(Take-all of Cereals) Mycelial fragments”, “was” for “iss”

[2] = test system: Botryotinia fuckeliana (Botrytis cinerea); assay: Fungicidal activity against Botryotinia fuckeliana (Botrytis cinerea) / liquid culture (gray mould); type: cell-based; settings: 3-4 days after application, read-out: disease control (inhibition of growth, photometrically)
Method: as §1, with “Botryotinia fuckeliana (Botrytis cinerea)/Liquid” for “Gaeumannomyces graminis/Liquid”, “(Gray Mould) Conidia” for “(Take-all of Cereals) Mycelial fragments”, “(Vogels” for “(PDB potato dextrose”, “was” for “iss”, “3-4” for “4-5”

[3] = test system: Puccinia recondita f. sp. tritici; assay: Fungicidal activity against Puccinia recondita f. sp. tritici / wheat / leaf disc preventative (brown rust); type: in vivo; settings: foliar, wheat leaf segments, inoculated 1 day after application, compared to untreated, read-out: disease control
Method: Fungicidal Activity Against Puccinia recondita f. sp. tritici/Wheat/Leaf Disc Preventative (Brown Rust) Wheat leaf segments cv. Kanzler were placed on agar in multiwell plates (24-well format) and sprayed with the formulated test compound diluted in water. The leaf disks were inoculated with a spore suspension of the fungus 1 day after application. The inoculated leaf segments were incubated at 19° C. and 75% rh under a light regime of 12 h light/12 h darkness in a climate cabinet and the activity of a compound was assessed as percent disease control compared to untreated when an appropriate level of disease damage appears in untreated check leaf segments (7-9 days after application).

[4] = test system: Glomerella lagenarium (Colletotrichum lagenarium); assay: Fungicidal activity against Glomerella lagenarium (Colletotrichum lagenarium) / liquid culture (anthracnose); type: cell-based; settings: Colletotrichum orbiculare, 3-4 days after application, read-out: disease control (inhibition of growth, photometrically)
Method: as §1, with “Glomerella lagenarium (Colletotrichum lagenarium)/Liquid” for “Gaeumannomyces graminis/Liquid”, “(Anthracnose) Conidia” for “(Take-all of Cereals) Mycelial fragments”, “was” for “iss”, “measured” for “determined”, “3-4” for “4-5”

[5] = test system: Thanatephorus cucumeris (Rhizoctonia solani); assay: Fungicidal activity against Thanatephorus cucumeris (Rhizoctonia solani) / liquid culture (foot rot, damping-off); type: cell-based; settings: 3-4 days after application, read-out: disease control (inhibition of growth, photometrically)
Method: Fungicidal Activity Against Thanatephorus cucumeris (Rhizoctonia solani)/Liquid Culture (Foot Rot, Damping-Off) Mycelia fragments of a newly grown liquid culture of the fungus were directly mixed into nutrient broth (PDB potato dextrose broth). After placing a (DMSO) solution of the test compounds into a microtiter plate (96-well format), the nutrient broth containing the fungal material was added. The test plates were incubated at 24° C. and the inhibition of growth was determined photometrically 3-4 days after application.

[6] = test system: Blumeria graminis f. Sp. tritici (Erysiphe graminis f. sp. tritici); assay: Fungicidal activity against Blumeria graminis f. sp. tritici / wheat / leaf disc preventative (powdery mildew on wheat); type: in vivo; settings: foliar, wheat leaf segments, inoculated 1 day after application, compared to untreated, read-out: disease control
Method: Fungicidal Activity Against Blumeria graminis f. Sp. tritici (Erysiphe graminis f. sp. tritici)/Wheat/Leaf Disc Preventative (Powdery Mildew on Wheat)
Wheat leaf segments cv. Kanzler were placed on agar in a multiwell plate (24-well format) and sprayed with the formulated test compound diluted in water. The leaf disks were inoculated by shaking powdery mildew infected plants above the test plates 1 day after application. The inoculated leaf disks were incubated at 20° C. and 60% rh under a light regime of 24 h darkness followed by 12 h light/12 h darkness in a climate chamber and the activity of a compound was assessed as percent disease control compared to untreated when an appropriate level of disease damage appears on untreated check leaf segments (6-8 days after application).

[7] = test system: Monographella nivalis (Microdochium nivale); assay: Fungicidal activity against Monographella nivalis (Microdochium nivale) / liquid culture (foot rot cereals); type: cell-based; settings: 4-5 days after application, read-out: disease control (inhibition of growth, photometrically)
Method: as §1, with “Monographella nivalis (Microdochium nivale)/Liquid” for “Gaeumannomyces graminis/Liquid”, “(Foot Rot” for “(Take-all of”, “Conidia” for “Mycelial fragments”, “was” for “iss”

[8] = test system: Mycosphaerella graminicola (Septoria tritici); assay: Fungicidal activity against Mycosphaerella graminicola (Septoria tritici) / liquid culture (Septoria blotch); type: cell-based; settings: Zymoseptoria tritici, 4-5 days after application, read-out: disease control (inhibition of growth, photometrically)
Method: as §1, with “Mycosphaerella graminicola (Septoria tritici)/Liquid” for “Gaeumannomyces graminis/Liquid”, “(Septoria Blotch) Conidia” for “(Take-all of Cereals) Mycelial fragments”, “was” for “iss”

Pyrenophora teres = assay: Fungicidal activity against Pyrenophora teres / barley / leaf disc preventative (net blotch); type: in vivo; settings: foliar, barley leaf segments, inoculated 2 days after application, compared to untreated, read-out: disease control
Method: Fungicidal Activity Against Pyrenophora teres/Barley/Leaf Disc Preventative (Net Blotch) Barley leaf segments cv. Hasso were placed on agar in a multiwell plate (24-well format) and sprayed with the formulated test compound diluted in water. The leaf segments were inoculated with a spore suspension of the fungus 2 days after application. The inoculated leaf segments were incubated at 20° C. and 65% rh under a light regime of 12 h light/12 h darkness in a climate cabinet and the activity of a compound was assessed as disease control compared to untreated when an appropriate level of disease damage appears in untreated check leaf segments (5-7 days after application).

[9] = test system: Phaeosphaeria nodorum (Septoria nodorum); assay: Fungicidal activity against Phaeosphaeria nodorum (Septoria nodorum) / wheat / leaf disc preventative (glume blotch); type: in vivo; settings: Parastagonospora nodorum, foliar, wheat leaf segments, inoculated 2 days after application, compared to untreated, read-out: disease control
Method: Fungicidal Activity Against Phaeosphaeria nodorum (Septoria nodorum)/Wheat/Leaf Disc Preventative (Glume Blotch) Wheat leaf segments cv. Kanzler were placed on agar in a multiwell plate (24-well format) and sprayed with the formulated test compound diluted in water. The leaf disks were inoculated with a spore suspension of the fungus 2 days after application. The inoculated test leaf disks were incubated at 20° C. and 75% rh under a light regime of 12 h light/12 h darkness in a climate cabinet and the activity of a compound was assessed as percent disease control compared to untreated when an appropriate level of disease damage appears in untreated check leaf disks (5-7 days after application).

Alternaria solani = assay: Fungicidal activity against Alternaria solani / tomato / leaf disc (early blight); type: in vivo; settings: foliar, tomato leaf disks, inoculated 2 days after application, compared to untreated, read-out: disease control
Method: Fungicidal Activity Against Alternaria solani/Tomato/Leaf Disc (Early Blight) Tomato leaf disks cv. Baby were placed on agar in multiwell plates (24-well format) and sprayed with the formulated test compound diluted in water. The leaf disks were inoculated with a spore suspension of the fungus 2 days after application. The inoculated leaf disks were incubated at 23° C./21° C.

SMILES	inhibition at 200 ppm (Gaeumannomyces graminis)	inhibition at 200 ppm [1]	inhibition at 200 ppm [2]	pest or weed control at 200 ppm [3]	inhibition at 200 ppm [4]	inhibition at 200 ppm [5]	pest or weed control at 200 ppm [6]	inhibition at 200 ppm [7]	inhibition at 200 ppm [8]	melting point	pest or weed control at 200 ppm (Pyrenophora teres)	pest or weed control at 200 ppm [9]	pest or weed control at 200 ppm (Alternaria solani)
Clc1ccc(Cc2cccc(-c3ncc4c(n3)CCCC4)n2)cn1 [Compound 1, 2-[6-(6-chloropyridin-3-ylmethyl)-pyridin-2-yl]-5,6,7,8-tetrahydroquinazoline]	≥ 80%	≥ 80%	≥ 80%	≥ 80%	≥ 80%	≥ 80%	≥ 80%	≥ 80%	≥ 80%	115 to 120 °C	≥ 80%	≥ 80%	
c1ccc(Cc2cccc(-c3ncc4c(n3)CCOC4)n2)cc1 [Compound 2]	≥ 80%	≥ 80%	≥ 80%	≥ 80%	≥ 80%	≥ 80%	≥ 80%		≥ 80%	244 to 245 °C	≥ 80%	≥ 80%	
Clc1cccc(Cc2cccc(-c3ncc4c(n3)CCOC4)n2)c1 [Compound 4]	≥ 80%	≥ 80%	≥ 80%	≥ 80%	≥ 80%	≥ 80%	≥ 80%	≥ 80%	≥ 80%	148 to 149 °C	≥ 80%	≥ 80%	
Cc1ccccc1Cc1cccc(-c2ncc3c(n2)CCOC3)n1 [Compound 6, 2-[6-(2-methylbenzyl)-pyridin-2-yl]-7,8-dihydro-5H-pyrano[4,3-d]pyrimidine]	≥ 80%	≥ 80%	≥ 80%	≥ 80%	≥ 80%		≥ 80%	≥ 80%	≥ 80%	132 to 133 °C	≥ 80%	≥ 80%	≥ 80%
CC1(C)CCc2cnc(-c3cccc(Cc4ccccc4)n3)nc2C1 [Compound 11]	≥ 80%	≥ 80%	≥ 80%	≥ 80%	≥ 80%	≥ 80%	≥ 80%	≥ 80%	≥ 80%	226 to 228 °C	≥ 80%	≥ 80%	
CC1(C)CCc2cnc(-c3cccc(Cc4cccc(C#N)c4)n3)nc2C1 [Compound 17]	≥ 80%	≥ 80%	≥ 80%		≥ 80%	≥ 80%		≥ 80%	≥ 80%	222 to 223 °C	≥ 80%	≥ 80%	
CO/N=C1\CCc2nc(-c3cccc(Cc4ccccc4)n3)ncc2C1 [Compound 18]	≥ 80%	≥ 80%	≥ 80%	≥ 80%	≥ 80%	≥ 80%	≥ 80%		≥ 80%	175 to 177 °C	≥ 80%	≥ 80%	
CO[C@@H]1CCc2nc(-c3cccc(Cc4ccccc4)n3)ncc2C1 [Compound 25]		≥ 80%	≥ 80%	≥ 80%	≥ 80%		≥ 80%	≥ 80%	≥ 80%		≥ 80%	≥ 80%	≥ 80%
Clc1ccccc1Cc1cccc(-c2ncc3c(n2)CCCCC3)n1 [Compound 33]	≥ 80%	≥ 80%	≥ 80%	≥ 80%	≥ 80%	≥ 80%	≥ 80%	≥ 80%	≥ 80%		≥ 80%	≥ 80%	≥ 80%
CC(c1ccccc1)c1cccc(-c2ncc3c(n2)CC(C)(C)CC3)n1 (stereo not shown) [Compound 45]	≥ 80%	≥ 80%	≥ 80%		≥ 80%	≥ 80%		≥ 80%	≥ 80%	136 to 138 °C	≥ 80%	≥ 80%	
